Test results published in patent US20060069132A1, “Azolecarboxamide herbicides” (priority 2004, published 2006).

Tests used:
morningglory = assay: Test A pre-/postemergence herbicide test; assay type: in vivo, Ipomoea spp.
Procedure, shortened: (§1)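 Both application timings were run together: directed soil spray over freshly planted seeds in sandy loam, and runoff spray onto 2–10 cm seedlings. Evaluation after ~10 days in greenhouse used a 0–100 visual scale versus untreated controls.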

bermudagrass = assay: Test C pre-/postemergence herbicide test; assay type: in vivo, Cynodon dactylon; settings: for Bermudagrass plant response rating: 500 g ai/ha
Procedure, shortened: (§2)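 Emerged plants at the 1- to 4-leaf stage (2–18 cm), or freshly planted seeds, received test chemicals in a non-phytotoxic solvent mixture with surfactant. Response was visually scored against controls after 12 to 14 days in the greenhouse, on a 0 (no effect) to 100 (complete control) scale.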

johnsongrass = assay: Test C pre-/postemergence herbicide test; assay type: in vivo, Sorghum halepense
Procedure, shortened: as §2

velvetleaf = assay: Test A pre-/postemergence herbicide test; assay type: in vivo, Abutilon theophrasti
Procedure, shortened: as §1

cocklebur = assay: Test C pre-/postemergence herbicide test; assay type: in vivo, Xanthium strumarium; settings: for Cocklebur plant response rating: 500 g ai/ha
Procedure, shortened: as §2

goosegrass = assay: Test C pre-/postemergence herbicide test; assay type: in vivo, Eleusine indica
Procedure, shortened: as §2

soybean = assay: Test C pre-/postemergence herbicide test; assay type: in vivo, Glycine max
Procedure, shortened: as §2

pigweed = assay: Test C pre-/postemergence herbicide test; assay type: in vivo, Amaranthus retroflexus
Procedure, shortened: as §2

Surinam grass = assay: Test C pre-/postemergence herbicide test; assay type: in vivo, Urochloa decumbens
Procedure, shortened: as §2

[1] = Postemergence, 500 g ai/ha, 0 to 100 scale, 0 no effect, 100 complete control
[2] = Postemergence, 2000 g ai/ha, 0 to 100 scale, 0 no effect, 100 complete control
[3] = Preemergence, 2000 g ai/ha, visual rating, 0 to 100 scale (0 no effect, 100 complete control)
[4] = preemergence, 500 g ai/ha, visual injury, 0 to 100 scale (0 no effect, 100 complete control)
[5] = 62 g ai/ha, preemergence, scale 0 to 100, 0 no effect, 100 complete control
[6] = 125 g ai/ha, scale 0 (no effect) to 100 (complete control), visual, 12 to 14 days, preemergence
[7] = 250 g ai/ha, scale 0-100, preemergence
[8] = Postemergence, 250 g ai/ha, scale 0 to 100, 0 no effect, 100 complete control
[9] = Preemergence, scale 0 to 100, 0 no effect, 100 complete control
[10] = postemergence, 125 g ai/ha, scale 0 to 100
[11] = postemergence, 62 g ai/ha, scale 0 to 100
[12] = 62 g ai/ha, preemergence, scale 0 to 100
[13] = 500 g ai/ha, scale 0 to 100 (0 no effect, 100 complete control), visual, 12 to 14 days, preemergence
[14] = Postemergence, 500 g ai/ha, scale 0 to 100

CCc1nc(C(C)(C)C)sc1C(=O)Nc1cccc(C(=O)NCC2CC2)c1 [Compound 212]
Morningglory plant response rating (morningglory; [1]): 15
Plant response rating, Morningglory (morningglory; [2]): 20
Morningglory plant response rating (morningglory; [3]): 65
Morningglory plant response rating (morningglory; [4]): 30
Plant response rating, Bermudagrass (bermudagrass; [5]): 60
Plant response rating, Bermudagrass (bermudagrass; [6]): 75
Plant response rating, Bermudagrass (bermudagrass; [7]): 80
Bermudagrass plant response rating (bermudagrass; Postemergence, scale 0 to 100): 50
Plant response rating, Bermudagrass (bermudagrass; [8]): 10
Bermudagrass plant response rating (bermudagrass; [9]): 100
Plant response rating, Bermudagrass (bermudagrass; [10]): 0
Plant response rating, Bermudagrass (bermudagrass; [11]): 0
Plant response rating, Johnsongrass (johnsongrass; [12]): 0
Plant response rating, Johnsongrass (johnsongrass; [6]): 0
Plant response rating, Johnsongrass (johnsongrass; [7]): 50
Plant response rating, Johnsongrass (johnsongrass; [13]): 60
Johnsongrass plant response rating (johnsongrass; [14]): 35
Plant response rating, Johnsongrass (johnsongrass; [8]): 35
Plant response rating, Johnsongrass (johnsongrass; [10]): 30
Plant response rating, Johnsongrass (johnsongrass; [11]): 0
Velvetleaf plant response rating (velvetleaf; [1]): 35
Plant response rating, Velvetleaf (velvetleaf; [2]): 35
Velvetleaf plant response rating (velvetleaf; [3]): 100
Velvetleaf plant response rating (velvetleaf; [4]): 65
Plant response rating, Cocklebur (cocklebur; [12]): 0
Plant response rating, Cocklebur (cocklebur; [6]): 0
Plant response rating, Cocklebur (cocklebur; [7]): 5
Cocklebur plant response rating (cocklebur; Postemergence, scale 0 to 100): 70
Plant response rating, Cocklebur (cocklebur; [8]): 70
Cocklebur plant response rating (cocklebur; [9]): 95
Plant response rating, Cocklebur (cocklebur; [10]): 60
Plant response rating, Cocklebur (cocklebur; [11]): 10
Plant response rating, Goosegrass (goosegrass; [12]): 10
Plant response rating, Goosegrass (goosegrass; [6]): 60
Plant response rating, Goosegrass (goosegrass; [7]): 95
Plant response rating, Goosegrass (goosegrass; [13]): 100
Goosegrass plant response rating (goosegrass; [14]): 30
Plant response rating, Goosegrass (goosegrass; [8]): 25
Plant response rating, Goosegrass (goosegrass; [10]): 10
Plant response rating, Goosegrass (goosegrass; [11]): 10
Plant response rating, Soybean (soybean; [12]): 0
Plant response rating, Soybean (soybean; [6]): 0
Plant response rating, Soybean (soybean; [7]): 0
Plant response rating, Soybean (soybean; [13]): 60
Soybean plant response rating (soybean; [14]): 85
Plant response rating, Soybean (soybean; [8]): 70
Plant response rating, Soybean (soybean; [10]): 60
Plant response rating, Soybean (soybean; [11]): 50
Plant response rating, Pigweed (pigweed; [12]): 100
Plant response rating, Pigweed (pigweed; [6]): 100
Plant response rating, Pigweed (pigweed; [7]): 100
Plant response rating, Pigweed (pigweed; [13]): 100
Pigweed plant response rating (pigweed; [14]): 90
Plant response rating, Pigweed (pigweed; [8]): 70
Plant response rating, Pigweed (pigweed; [11]): 50
Plant response rating, Surinam Grass (Surinam grass; [12]): 0
Plant response rating, Surinam Grass (Surinam grass; [6]): 0
Plant response rating, Surinam Grass (Surinam grass; [7]): 5
Plant response rating, Surinam Grass (Surinam grass; [13]): 20
Surinam Grass plant response rating (Surinam grass; [14]): 50
Plant response rating, Surinam Grass (Surinam grass; [8]): 20
Plant response rating, Surinam Grass (Surinam grass; [10]): 5
Plant response rating, Surinam Grass (Surinam grass; [11]): 0

CCN(CC)C(=O)c1cccc(NC(=O)c2cc(C(C)(C)C)nn2C)n1 [Compound 314]
Morningglory plant response rating (morningglory; [1]): 30
Plant response rating, Morningglory (morningglory; [2]): 50
Morningglory plant response rating (morningglory; [3]): 30
Morningglory plant response rating (morningglory; [4]): 10
Plant response rating, Bermudagrass (bermudagrass; [5]): 10
Plant response rating, Bermudagrass (bermudagrass; [6]): 60
Plant response rating, Bermudagrass (bermudagrass; [7]): 60
Bermudagrass plant response rating (bermudagrass; [9]): 90
Plant response rating, Johnsongrass (johnsongrass; [12]): 0
Plant response rating, Johnsongrass (johnsongrass; [6]): 20
Plant response rating, Johnsongrass (johnsongrass; [7]): 70
Plant response rating, Johnsongrass (johnsongrass; [13]): 90
Velvetleaf plant response rating (velvetleaf; [1]): 20
Plant response rating, Velvetleaf (velvetleaf; [2]): 30
Velvetleaf plant response rating (velvetleaf; [3]): 80
Velvetleaf plant response rating (velvetleaf; [4]): 40
Plant response rating, Cocklebur (cocklebur; [12]): 0
Plant response rating, Cocklebur (cocklebur; [6]): 0
Plant response rating, Cocklebur (cocklebur; [7]): 0
Cocklebur plant response rating (cocklebur; [9]): 20
Plant response rating, Goosegrass (goosegrass; [12]): 0
Plant response rating, Goosegrass (goosegrass; [6]): 40
Plant response rating, Goosegrass (goosegrass; [7]): 65
Plant response rating, Goosegrass (goosegrass; [13]): 85
Plant response rating, Soybean (soybean; [12]): 0
Plant response rating, Soybean (soybean; [7]): 40
Plant response rating, Soybean (soybean; [13]): 40
Plant response rating, Pigweed (pigweed; [12]): 30
Plant response rating, Pigweed (pigweed; [6]): 60
Plant response rating, Pigweed (pigweed; [7]): 90
Plant response rating, Pigweed (pigweed; [13]): 90
Plant response rating, Surinam Grass (Surinam grass; [12]): 0
Plant response rating, Surinam Grass (Surinam grass; [7]): 0
Plant response rating, Surinam Grass (Surinam grass; [13]): 20
